Columns and labels:
[1] = test system: influenza A virus subtype H3N2 strain (A/California/2/2014); assay: Cytopathic effect (CPE) assay in MDCK cells, influenza A; assay type: cell-based; settings: for EC50: Influenza A virus, H3N2, MDCK cells, 100 TCID50, CPE assay, CCK-8, read-out: EC50 against the influenza A virus subtype H3N2 strain (A/California/2/2014)
[2] = test system: IBV influenza B virus; assay: In vivo pharmacodynamics, influenza B virus infection model (lung index, lung viral load); parameters: PCR relative quantification: unit not given here; settings: IBV-infected BALB/c mice, x ± s, n = 10; for Lung index: 6 mg/kg oral gavage once daily; for PCR relative quantification: lung tissue, dose printed 18 mg/kg
Protocol: (§1) In this example, the H3N2 influenza A virus and the IBV influenza B virus were used to intranasally infect BALB/c mice to establish an influenza A virus infection model and an influenza B virus infection model. After infection, the compound of Formula I was administered to the mice by oral gavage. Changes in lung index and lung viral load of the mice were observed. Oseltamivir phosphate granules, baloxavir marboxil, T-3 compound and T-4 compound were set as positive controls to evaluate the in vivo efficacy of the compound of Formula I against influenza viruses.
A total of 210 qualified SPF-grade BALB/c mice, weighing 13.0-15.4 g, half male and half female, were randomly divided into 7 groups based on genders and body weights: normal control group, model control group, oseltamivir phosphate granules group (6 mg/kg), baloxavir marboxil group (6 mg/kg), T-3 compound group (6 mg/kg), T-4 compound group (6 mg/kg) and Compound of Formula I group (6 mg/kg), 30 mice per group. Two hours before the first administration, all mice were lightly anesthetized with ether. Except for the normal control group, all mice were intranasally inoculated with the stock solution of IBV influenza B virus (viral titer: 8 log2) at 100 µL per mouse. The normal control group was administrated with an equal volume of phosphate-buffered solution intranasally. Each group of mice was administered the corresponding concentration of the drug solution at 20 mL/kg by oral gavage, once daily for 5 consecutive days. The normal control group and the model control group were administered an equal volume of 0.5% MC. The body weights of the mice in each group were recorded daily. At 24 h and 48 h after administration, 10 mice (half male and half female) were randomly selected from each group and euthanized by cervical dislocation, and their lungs were dissected and weighed to calculate the lung index. The influenza B viral load in the lung tissue of the mice was detected using a relative fluorescence quantitative PCR method. […]

[3] = test system: H3N2 influenza A virus; assay: In vivo pharmacodynamics, influenza A virus infection model (lung index, lung viral load); settings: H3N2-infected BALB/c mice, x ± s, n = 10; for Lung index: 6 mg/kg oral gavage once daily; for PCR viral load: lung tissue, 6 mg/kg
Protocol: as §1
A total of 250 qualified SPF-grade BALB/c mice, weighing 11.9-15.1 g, half male and half female, were randomly divided into 7 groups based on genders and body weights: normal control group, model control group, oseltamivir phosphate granules group (6 mg/kg), baloxavir marboxil group (6 mg/kg), T-3 compound group (6 mg/kg), T-4 compound group (6 mg/kg) and Compound of Formula I group (6 mg/kg). The normal control group, oseltamivir phosphate granules group, baloxavir marboxil group, T-3 compound group (6 mg/kg) and T-4 compound group each included 30 mice, and the model control group and the Compound of Formula I group each included 50 mice. Two hours before the first administration, all mice were lightly anesthetized with ether. Except for the normal control group, all mice were intranasally inoculated with the stock solution of H3N2 influenza A virus (viral titer: 6 log2) at 100 µL per mouse. The normal control group was administrated with an equal volume of phosphate-buffered solution intranasally. Each group of mice was administered the corresponding concentration of the drug solution at 20 mL/kg, once daily for 5 consecutive days. The normal control group and the model control group were administered an equal volume of 0.5% methylcellulose (0.5% MC) by oral gavage. The body weights of the mice in each group were recorded daily. At 24 h and 48 h after administration, 10 mice (half male and half female) were randomly selected from each group and euthanized by cervical dislocation, and their lungs were dissected and weighed to calculate the lung index. The influenza A viral load in the lung tissue of the mice was detected using a real-time quantitative polymerase chain reaction (PCR) method. In the model control group and the Compound of Formula I group, 10 mice were euthanized at 12 h, 24 h, 48 h, 72 h, and 5 days after administration. The left lung was collected to assess the H3N2 influenza A viral load. […]

[4] = test system: influenza B virus strain (B/Florida/78/2015); assay: Cytopathic effect (CPE) assay in MDCK cells, influenza B; assay type: cell-based; settings: 100 TCID50, CPE assay, CCK-8, read-out: EC50 against the influenza B virus strain (B/Florida/78/2015)
[5] = In vitro cytotoxicity, Cell Counting Kit (CCK-8); assay type: cell-based, canine; settings: dog; MDCK cells, 48 h incubation, CCK-8, OD450nm; read-out: IC50 (cytotoxic effects on MDCK cells)
Protocol: The in vitro cytotoxic effects of the test compound (the compound of Formula I) and the positive control drugs (baloxavir marboxil, baloxavir, T-3 compound and T-4 compound) on Madin-Darby canine kidney (MDCK) cells were determined using a Cell Counting Kit (CCK-8). MDCK cells were seeded in 96-well plates and cultured overnight. After different concentrations of the drugs were added, the cells were incubated for 48 h. CCK-8 was then added, and the cells were incubated in the dark for […]. The optical density (OD) at 450 nm (OD450nm) values were measured using a microplate reader, and the half-maximal inhibitory concentration (IC50) of the drugs on the cells was calculated.

[6] = Pharmacokinetics after oral gavage of MC suspension, plasma LC-MS/MS; parameters: species or system SD rats; settings: SD, rat, in vivo, 0.9 mg/kg
Protocol: This example investigated the pharmacokinetics profile of the compound of Formula I administered as a methylcellulose (MC) suspension by oral gavage in rats.
The drug concentration of baloxavir was determined using a validated LC-MS/MS analytical method. Plasma samples were precipitated with acetonitrile, and the supernatant was injected for analysis. A chromatographic column, Waters XBridge C8 2.5 µm 2.1×50 mm Column, was used, and a gradient elution was carried out using a mobile phase of 0.1% formic acid in water and acetonitrile (containing 0.1% formic acid), with a flow rate of 0.60 mL/min. Monitoring was carried out using an electrospray ionization (ESI) source in a positive ion mode with a multiple reaction monitoring (MRM) method. The linear range for baloxavir was 0.1000 to 100.0 ng/mL, with a lower limit of quantification of 0.1000 ng/mL; the linear range for baloxavir marboxil was 0.1000 to 5.000 ng/mL, with a lower limit of quantification of 0.1000 ng/mL; the linear range for the compound of Formula I was 0.1000 to 5.000 ng/mL, with a lower limit of quantification of 0.1000 ng/mL; the linear range for the T-3 compound was 0.1000 to 5.000 ng/mL, with a lower limit of quantification of 0.1000 ng/mL; and the linear range for the T-4 compound was 0.1000 to 5.000 ng/mL, with a lower limit of quantification of 0.1000 ng/mL.
This experiment used the marketed drug baloxavir marboxil and the analogous compounds T-3 and T-4 as references to investigate the differences in single-dose pharmacokinetics characteristics between the compound of Formula I and the above compounds. The dose groups were designed as follows: baloxavir marboxil group, with a medium dose (0.9 mg/kg, calculated as baloxavir), T-3 and T-4 compound groups, with a medium dose (0.9 mg/kg), and Compound of Formula I group, with a medium dose (0.9 mg/kg). Blood samples (approximately 0.2 mL) were collected via the orbital plexus before administration (0 h) and at 5 min, 15 min, 30 min, 1 h, 2 h, 4 h, 6 h, 8 h, 12 h, and 24 h after administration. Plasma was separated by centrifugation at 1700 g for 10 min, and plasma drug concentrations were determined by the LC-MS/MS method. Measured concentration values below 80% of the lower limit of quantification of the analyzed subject were considered not detected (counted as zero) or below the limit of quantification (counted as ND); values before the peak concentration Cmax were counted as zero, and values after the peak concentration were counted as ND. Pharmacokinetics parameters were calculated using Phoenix WinNonlin 8.0 software.
The main pharmacokinetics parameter experiment results are as follows: The primary pharmacokinetics parameters after the administration of different doses of a suspension of the compound of Formula I to SD rats by oral gavage are shown in Table 5 below.

Row | SMILES | EC50 [1] [nM] | protection against influenza virus-induced cell damage ([1]; concentration of 250 nM, influenza virus, strain not specified) | Lung index ([2]; 24 h after administration) [mg/g] | Lung index ([2]; 48 h after administration) | PCR relative quantification ([2]; 24 h after administration) | PCR relative quantification ([2]; 48 h after administration) | Lung index ([3]; 24 h after administration) | Lung index ([3]; 48 h after administration) | PCR viral load ([3]; 24 h after administration) | PCR viral load ([3]; 48 h after administration) | EC50 [4] [nM] | IC50 at 48 h [5] [nM] | AUC 0-t [6] | AUC 0-∞ [6] | Cmax [6] | Tmax [6]
1 | [2H]C([2H])([2H])C([2H])([2H])OC(=O)OCOc1c2n(ccc1=O)N([C@@H]1c3ccccc3SCc3c1ccc(F)c3F)[C@@H]1COCCN1C2=O [Compound of Formula I, [[(12aR)-12-[(11S)-7,8-difluoro-6,11-dihydrodibenzo[b,e]thiepin-11-yl]-6,8-dioxo-3,4,6,8,12,12 a-hexahydro-1H-[1,4]oxazino[3,4-c]pyrido[2,1-f][1,2,4]triazin-7-yl]oxy]methyl (ethyl-d5) carbonate] | 5.02 | significant protection | 12.01 ± 1.09 | 9.79 ± 0.90^×× mg/g | 1416.57 ± 1122.12 | 1206.66 ± 1034.87 | 8.67 ± 0.51^×× mg/g | 9.00 ± 0.57^× mg/g | 1308927 ± 1042821^×× copies | 193017 ± 192655^×× copies | 8.15 | 17400 | 203.1047 ± 21.4237 (10.55%) ng·h/mL | 207.7670 ± 25.0910 (12.08%) ng·h/mL | 31.7780 ± 2.4334 (7.66%) ng/mL | 1.0000 (0.500, 2.000) h
2 | COC(=O)OCOc1c2n(ccc1=O)N([C@@H]1c3ccccc3SCc3c1ccc(F)c3F)[C@@H]1COCCN1C2=O [baloxavir marboxil] | 13.4 | – | 11.64 ± 1.06 | 11.45 ± 0.66^× mg/g | – | – | 9.53 ± 0.80 mg/g | 9.11 ± 0.96 mg/g | 1919953 ± 784647^×× copies | 320599 ± 202529 copies | 15.4 | 11600 | 157.8227 ± 56.5111 (35.81%) ng·h/mL | 160.9111 ± 57.8613 (35.96%) ng·h/mL | 23.1900 ± 7.9729 (34.38%) ng/mL | 1.0000 (0.250, 2.000) h
3 | O=C1c2c(O)c(=O)ccn2N([C@@H]2c3ccccc3SCc3c2ccc(F)c3F)[C@@H]2COCCN12 [baloxavir] | 1.31 | – | – | – | – | – | – | – | – | – | 2.06 | 10400 | – | – | – | –

— EP4696693A1, “HEXAHYDRO[1,4]OXAZINO[3,4-C]PYRIDO[2,1-F][1,2,4]TRIAZINE DEUTERATED DERIVATIVE, PHARMACEUTICAL COMPOSITION THEREOF, PREPARATION METHOD THEREFOR, AND ANTI-INFLUENZA USE THEREOF” (Changsha Jingyi Pharmaceutical Technology Co., Ltd, priority 2023, dated 2024)
